{"source": "paper PMC7460883", "about": "“Dual Substrate Specificity of the Rutinosidase from Aspergillus niger and the Role of Its Substrate Tunnel” (International Journal of Molecular Sciences, 2020)", "biological_target": "T1, AnRut (recombinant rutinosidase from Aspergillus niger) (Aspergillus niger, UniProt A0A6B9UJ04)", "T1 construct": "vector pPICZalphaA-RUT, secreted as fusion product by Pichia pastoris KM71H; crude culture medium, ca 66 kDa glycosylated (45 kDa deglycosylated), dimer", "T1 sequence (A0A6B9UJ04 20-386)": "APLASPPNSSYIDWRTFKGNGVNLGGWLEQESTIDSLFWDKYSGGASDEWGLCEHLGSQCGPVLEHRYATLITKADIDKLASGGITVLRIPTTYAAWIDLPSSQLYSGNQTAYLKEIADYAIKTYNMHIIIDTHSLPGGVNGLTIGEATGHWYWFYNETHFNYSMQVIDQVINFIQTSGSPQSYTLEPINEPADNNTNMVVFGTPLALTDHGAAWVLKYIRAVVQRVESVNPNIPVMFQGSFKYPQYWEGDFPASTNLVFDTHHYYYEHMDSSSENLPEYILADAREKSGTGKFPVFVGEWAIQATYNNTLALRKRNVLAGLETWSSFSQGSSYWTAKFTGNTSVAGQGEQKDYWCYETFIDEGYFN", "experiment": "transglycosylation (glycosyl donor), TLC / product isolation", "type": "biochemical", "conditions": "pH 3.5, 36 °C; crude culture medium with secreted recombinant enzyme; suspended substrate; acceptors 3-9"}
{"molecule": "O=c1c(O[C@@H]2O[C@H](CO)[C@@H](O)[C@H](O)[C@H]2O)c(-c2ccc(O)c(O)c2)oc2cc(O)cc(O)c12", "note": "[compound 2, isoquercitrin]", "values": [{"measurement": "transglycosylation (glycosyl donor), TLC / product isolation", "value": "both AnRut activities, i.e., rutinosidase (with rutin donor) and glucosidase (with isoquercitrin donor)"}]}
{"molecule": "C[C@@H]1O[C@@H](OC[C@H]2O[C@@H](Oc3c(-c4ccc(O)c(O)c4)oc4cc(O)cc(O)c4c3=O)[C@H](O)[C@@H](O)[C@@H]2O)[C@H](O)[C@H](O)[C@H]1O", "note": "[compound 1, rutin]", "values": [{"measurement": "transglycosylation (glycosyl donor), TLC / product isolation", "value": "both AnRut activities, i.e., rutinosidase (with rutin donor) and glucosidase (with isoquercitrin donor)"}]}
